# Data: US11419855B2, “Pharmaceutical preparation” (KOWA COMPANY, LTD., priority 2017, dated 2022)
# How the values were obtained:
# [1] = Hygroscopic property evaluation of pemafibrate crystal (Karl Fischer moisture content); assay type: physicochemical
# Method: A pemafibrate crystal was produced by recrystallizing pemafibrate from an ethyl acetate/heptane mixture in accordance with the method for producing a pemafibrate crystal as described in Non-Patent Document 1.
# 250 mg of the pemafibrate crystal was placed in a dish, and stored in an uncapped state (open state) in a dark place at 25° C. and 83% relative humidity (RH) for 3 months. The hygroscopic property was evaluated by measuring the moisture contents before and after the storage. The measurement of the moisture content was performed by a coulometric titration method in accordance with The Japanese Pharmacopoeia, 17th Edition, Moisture Content Measurement Method (Karl Fischer Method).
# [2] = Examination of stability of pemafibrate, stored alone in open state in dish (HPLC related substances); assay type: physicochemical
# Method: 250 mg of pemafibrate was placed in a dish, and stored in an uncapped state (open state) in a dark place at 40° C. and 75% relative humidity (RH) for 3 months.
# The amounts of pemafibrate-derived decomposition products (related substances) before the start of storage and after storage at 40° C. and 75% RH for 3 months were evaluated through the following method.
# The sum of related substance-derived peak areas was evaluated in terms of a ratio (%) to the pemafibrate-derived peak area using an HPLC apparatus, and the ratio was defined as the “Total amount (%) of related substances”.
"Moisture content (%), before storage ([1]; before storage, Karl Fischer coulometric titration) [%]","Moisture content (%), after storage at 25° C. and 83% RH for 3 months ([1]; open state in dish, dark place, 25° C., 83% RH, 3 months) [%]","Hygroscopic property ([1]; storage at 83% RH for 3 months, in words)","Stability at high humidity ([2]; 75% RH, storage for 3 months, in words)","Total amount (%) of related substances, before storage ([2]; before storage, HPLC ratio of related substance peak areas to pemafibrate peak area) [%]","Total amount (%) of related substances, after storage at 40° C. and 75% RH for 3 months ([2]; open state in dish, dark place, 40° C., 75% RH, 3 months) [%]",SMILES
<0.1,<0.1,not hygroscopic,,,,"CC[C@@H](Oc1cccc(CN(CCCOc2ccc(OC)cc2)c2nc3ccccc3o2)c1)C(=O)O [Pemafibrate crystal, (2R)-2-[3-([1,3-Benzoxazol-2-yl[3-(4-methoxyphenoxy)propyl]amino]methyl)phenoxy]butanoic acid]"
,,,stable,<0.05,<0.05,"CC[C@@H](Oc1cccc(CN(CCCOc2ccc(OC)cc2)c2nc3ccccc3o2)c1)C(=O)O [Pemafibrate, (2R)-2-[3-([1,3-Benzoxazol-2-yl[3-(4-methoxyphenoxy)propyl]amino]methyl)phenoxy]butanoic acid]"
